What all share (type): functional
Test [1] deals with U-118-MG. Nature of the test: Effect on RAF1 mRNA expression in human U118MG cells at EC10 by qPCR method relative to beta-actin. (Real-time PCR tracks product formation cycle by cycle.)
For test [2], the system named is U-118-MG. Nature of the test: Effect on PTGDR mRNA expression in human U118MG cells at EC10 by qPCR method relative to beta-actin.
Test [3] relates to U-118-MG. Nature of the test: Effect on AGT mRNA expression in human U118MG cells at EC10 by qPCR method relative to beta-actin.
In test [4] the test system is U-118-MG. Nature of the test: Effect on OPRD1 mRNA expression in human U118MG cells at EC10 by qPCR method relative to beta-actin.
Test [5] relates to SH-SY5Y. Nature of the test: Effect on APP mRNA expression in human SH-SY5Y cells at EC10 by qPCR method relative to beta-actin.
In test [6] the test system is SH-SY5Y. Nature of the test: Effect on HIF1A mRNA expression in human SH-SY5Y cells at EC10 by qPCR method relative to beta-actin.
Test [7] has as its system SH-SY5Y. Nature of the test: Effect on CYP19A1 mRNA expression in human SH-SY5Y cells at EC10 by qPCR method relative to beta-actin.
The subject of test [8] is U-118-MG. Nature of the test: Effect on ADRB2 mRNA expression in human U118MG cells at EC10 by qPCR method relative to beta-actin.
Test [9] relates to SH-SY5Y. Nature of the test: Effect on CSF1 mRNA expression in human SH-SY5Y cells at EC10 by qPCR method relative to beta-actin.
Test [10] relates to SK-N-SH. Nature of the test: Effect on ITGB2 mRNA expression in human SK-N-SH cells at EC10 by qPCR method relative to beta-actin.
Test [11] has as its system SH-SY5Y. Nature of the test: Effect on RAF1 mRNA expression in human SH-SY5Y cells at EC10 by qPCR method relative to beta-actin.
Test [12] has as its system SH-SY5Y. Nature of the test: Effect on ITGB2 mRNA expression in human SH-SY5Y cells at EC10 by qPCR method relative to beta-actin.
Test [13] has as its system SK-N-SH. Nature of the test: Effect on MAL mRNA expression in human SK-N-SH cells at EC10 by qPCR method relative to beta-actin.
Test [14] relates to U-118-MG. Nature of the test: Effect on APP mRNA expression in human U118MG cells at EC10 by qPCR method relative to beta-actin.
Test [15] concerns SH-SY5Y. Nature of the test: Effect on MAL mRNA expression in human SH-SY5Y cells at EC10 by qPCR method relative to beta-actin.
Test [16] deals with SH-SY5Y. Nature of the test: Effect on FOXP3 mRNA expression in human SH-SY5Y cells at EC10 by qPCR method relative to beta-actin.
The test system of test [17] is U-118-MG. Nature of the test: Effect on ITGB2 mRNA expression in human U118MG cells at EC10 by qPCR method relative to beta-actin.
Test [18] has as its system SK-N-SH. Nature of the test: Effect on GRM7 mRNA expression in human SK-N-SH cells at EC10 by qPCR method relative to beta-actin.
In test [19] the test system is SK-N-SH. Nature of the test: Effect on HIF1 mRNA expression in human SK-N-SH cells at EC10 by qPCR method relative to beta-actin.
For test [20], the system named is SH-SY5Y. Nature of the test: Effect on IL18 mRNA expression in human SH-SY5Y cells at EC10 by qPCR method relative to beta-actin.
Test [21] relates to U-118-MG. Nature of the test: Effect on IL18 mRNA expression in human U118MG cells at EC10 by qPCR method relative to beta-actin.
The test system of test [22] is SK-N-SH. Nature of the test: Effect on CRHR1 mRNA expression in human SK-N-SH cells at EC10 by qPCR method relative to beta-actin.
In test [23] the test system is SK-N-SH. Nature of the test: Effect on LTA mRNA expression in human SK-N-SH cells at EC10 by qPCR method relative to beta-actin.
The test system of test [24] is SK-N-SH. Nature of the test: Effect on IL18 mRNA expression in human SK-N-SH cells at EC10 by qPCR method relative to beta-actin.
Test [25] concerns SK-N-SH. Nature of the test: Effect on MAPK1 mRNA expression in human SK-N-SH cells at EC10 by qPCR method relative to beta-actin.
Test [26] relates to SK-N-SH. Nature of the test: Effect on C1S mRNA expression in human SK-N-SH cells at EC10 by qPCR method relative to beta-actin.
The subject of test [27] is SK-N-SH. Nature of the test: Effect on EDN1 mRNA expression in human SK-N-SH cells at EC10 by qPCR method relative to beta-actin.
The subject of test [28] is SH-SY5Y. Nature of the test: Effect on CXCL11 mRNA expression in human SH-SY5Y cells at EC10 by qPCR method relative to beta-actin.
For test [29], the system named is SK-N-SH. Nature of the test: Effect on IL13 mRNA expression in human SK-N-SH cells at EC10 by qPCR method relative to beta-actin.
The test system of test [30] is U-118-MG. Nature of the test: Effect on EDN1 mRNA expression in human U118MG cells at EC10 by qPCR method relative to beta-actin.
Test [31] has as its system U-118-MG. Nature of the test: Effect on CD4 mRNA expression in human U118MG cells at EC10 by qPCR method relative to beta-actin.
Test [32] relates to SH-SY5Y. Nature of the test: Effect on CRHR1 mRNA expression in human SH-SY5Y cells at EC10 by qPCR method relative to beta-actin.
For test [33], the system named is SK-N-SH. Nature of the test: Effect on CXCL11 mRNA expression in human SK-N-SH cells at EC10 by qPCR method relative to beta-actin.
The test system of test [34] is U-118-MG. Nature of the test: Effect on TNFRSF1B mRNA expression in human U118MG cells at EC10 by qPCR method relative to beta-actin.
Test [35] relates to SK-N-SH. Nature of the test: Effect on PLP1 mRNA expression in human SK-N-SH cells at EC10 by qPCR method relative to beta-actin.
Test [36] relates to U-118-MG. Nature of the test: Effect on PLP1 mRNA expression in human U118MG cells at EC10 by qPCR method relative to beta-actin.
For test [37], the system named is U-118-MG. Nature of the test: Effect on TNFRSF1A mRNA expression in human U118MG cells at EC10 by qPCR method relative to beta-actin.
Test [38] has as its system U-118-MG. Nature of the test: Effect on TGFB1 mRNA expression in human U118MG cells at EC10 by qPCR method relative to beta-actin.
The subject of test [39] is SK-N-SH. Nature of the test: Effect on CXCL9 mRNA expression in human SK-N-SH cells at EC10 by qPCR method relative to beta-actin.
Test [40] relates to SK-N-SH. Nature of the test: Effect on CCL5 mRNA expression in human SK-N-SH cells at EC10 by qPCR method relative to beta-actin.
Test [41] concerns U-118-MG. Nature of the test: Effect on TGFB2 mRNA expression in human U118MG cells at EC10 by qPCR method relative to beta-actin.

The structures appear in SMILES notation.

Consider `CCCCCCCCc1ccc(CCC(N)(CO)CO)cc1` [FINGOLIMOD], for which the “fold change (FC)” value is on record as -3.8172 with U-118-MG [1]; -4.4856 in the test on U-118-MG [2]; 5.5368 in the test with U-118-MG [3]; 3.818 with U-118-MG [4]; -10.004 with SH-SY5Y [5]; -8.3109 in the test on SH-SY5Y [6]. The “fold change (FC)” value in the test with SH-SY5Y [7] is -5.8869; in the test on U-118-MG [8], -4.9171; in the test on SH-SY5Y [9], -3.1329; in the test on SK-N-SH [10] it was -6.3947; in the test with SH-SY5Y [11] it was -5.0718; in the test with SH-SY5Y [12], -3.9655. In addition, the “fold change (FC)” value in the test on SK-N-SH [13] was -4.2778; in the test on U-118-MG [14], -2.5646; with SH-SY5Y [15] it was -5.5117; in the test with SH-SY5Y [16] it was -5.5022; with U-118-MG [17], -4.0523; in the test on SK-N-SH [18], -6.2306. In addition, in the test with SK-N-SH [19], the “fold change (FC)” value is reported as -3.1808.

For the molecule `CCCCCCCCn1nnnc1CCC(N)(CO)CO.Cl`, the “fold change (FC)” value in the test on SH-SY5Y [20] was -3.9685; in the test with U-118-MG [21], -3.772; in the test on SK-N-SH [22] it was 4.6448; with SK-N-SH [23], -5.1941; with SK-N-SH [24], -5.1137; with SK-N-SH [25], -10.5515. Further, the “fold change (FC)” value is -5.1582 in the test on SK-N-SH [26]; 7.7711 in the test on SK-N-SH [27]; -5.0428 in the test on SH-SY5Y [28]; -6.6894 in the test with SK-N-SH [29]; 5.5464 in the test with U-118-MG [30]; -3.5323 in the test on U-118-MG [31]. Besides, the “fold change (FC)” value is 4.2103 in the test on SH-SY5Y [32] and -3.5538 in the test on SK-N-SH [33].

Consider `CCCCCCCCn1nnnc1-c1ccc(C(O)CC(N)(CO)CO)cc1.Cl` (stereo unspecified), for which the “fold change (FC)” value with U-118-MG [34] was -3.1207; with SK-N-SH [35] it was 4.9417; in the test with U-118-MG [36], 3.4958; in the test on U-118-MG [37], -3.0144; with U-118-MG [38], -5.1404; in the test on SK-N-SH [39], -4.8484. In addition, the “fold change (FC)” value is recorded as -4.1626 in the test on SK-N-SH [40] and -5.915 in the test with U-118-MG [41].

The values above are taken from ChEMBL document CHEMBL3872249, “Computer design, synthesis, and bioactivity analyses of drugs like fingolimod used in the treatment of multiple sclerosis” (Bioorg Med Chem, 2017).
